Results on 25 compounds are retold here after patent US20260048047A1, “SMALL-MOLECULE ACTIVATORS OF MYCOBACTERIUM TUBERCULOSIS ADENYLYL CYCLASE” (priority 2022, published 2026).

This experiment concerns M. tuberculosis. The experiment in a line: Extracellular activity against M. tuberculosis in cholesterol media (Alamar Blue reduction assay). Type of experiment: cell-based, Mycobacterium tuberculosis. As to conditions: 7H12-Cholesterol media, 10 days, read-out: Cholesterol broth: alamar blue--EC50. For orientation: Resazurin is reduced to fluorescent resorufin, in cell work by metabolically active cells.

Setting [1] is: Mycobacterium tuberculosis, 240 h.

Molecules are shown by their SMILES. Like-named read-outs stand apart in the source and are kept apart here.

By EC50 is commonly meant the concentration at which the effect is half-maximal. Take `O=C(Cc1cc(=O)[nH]c(=O)[nH]1)N1CCC(c2nc(-c3ccc(F)cc3)no2)CC1` [Compound 1, 6-(2-(4-(3-(4-fluorophenyl)-1,2,4-oxadiazol-5-yl)piperidin-1-yl)-2-oxoethyl)pyrimidine-2,4(1H,3H)-dione]: under setting [1], the EC50 came to 784 nM. Consider `O=C(Cc1cnccn1)N1CCC(n2nnc(-c3ccc(F)cc3)n2)CC1` [Compound 2, 1-(4-(5-(4-fluorophenyl)-2H-tetrazol-2-yl)piperidin-1-yl)-2-(pyrazin-2-yl)ethan-1-one], for which the EC50 is more than 10000 nM. With `O=c1cc(CN2CCC(c3nc(-c4ccc(Cl)c(Cl)c4)no3)CC2)[nH]c(=O)[nH]1` [Compound 3, 6-((4-(3-(3,4-dichlorophenyl)-1,2,4-oxadiazol-5-yl)piperidin-1-yl)methyl)pyrimidine-2,4(1H,3H)-dione], the EC50 under setting [1] came to 179 nM. On to `O=C(Cc1cnccn1)N1CCC(n2nnc(-c3ccc(F)cc3)n2)CC1` [Compound 4, 1-(4-(5-(4-fluorophenyl)-2H-tetrazol-2-yl)piperidin-1-yl)-2-(pyrazin-2-yl)ethan-1-one], for which the EC50 was determined as 122 nM. Regarding `CC(C)c1noc(CC(=O)N2CCC(c3nc(-c4ccc(Cl)c(Cl)c4)no3)CC2)n1` [Compound 5, 1-(4-(3-(3,4-dichlorophenyl)-1,2,4-oxadiazol-5-yl)piperidin-1-yl)-2-(3-isopropyl-1,2,4-oxadiazol-5-yl)ethan-1-one], under setting [1], the EC50 was 1430 nM. For the compound `CC(C)c1noc(CC(=O)N2CCC(c3nc(-c4ccc(F)cc4)no3)CC2)n1` [Compound 6, 1-(4-(3-(4-fluorophenyl)-1,2,4-oxadiazol-5-yl)piperidin-1-yl)-2-(3-isopropyl-1,2,4-oxadiazol-5-yl)ethan-1-one], under setting [1], the EC50 came to 2980 nM.

Consider `Cc1cncnc1CC(=O)N1CCC(c2nc(C3CCCCC3)no2)CC1` [Compound 7, 1-(4-(3-cyclohexyl-1,2,4-oxadiazol-5-yl)piperidin-1-yl)-2-(5-methylpyrimidin-4-yl)ethan-1-one], for which the EC50 under setting [1] is more than 25000 nM. For the compound `Cc1cncnc1CC(=O)N1CCC(c2nc(-c3ccc(Cl)c(Cl)c3)no2)CC1` [Compound 8, 1-(4-(3-(3,4-dichlorophenyl)-1,2,4-oxadiazol-5-yl)piperidin-1-yl)-2-(5-methylpyrimidin-4-yl)ethan-1-one], the EC50 under setting [1] was found to be 479 nM.

`Cc1cncnc1CC(=O)N1CCC(c2nc(-c3ccc(F)cc3)no2)CC1` [Compound 9, 1-(4-(3-(4-fluorophenyl)-1,2,4-oxadiazol-5-yl)piperidin-1-yl)-2-(5-methylpyrimidin-4-yl)ethan-1-one]: under setting [1], the EC50 was 3680 nM. Still for that read-out and setting: next, `Cc1conc1CC(=O)N1CCC(c2nc(-c3ccc(Cl)c(Cl)c3)no2)CC1` [Compound 10, 1-(4-(3-(3,4-dichlorophenyl)-1,2,4-oxadiazol-5-yl)piperidin-1-yl)-2-(4-methylisoxazol-3-yl)ethan-1-one]: 284 nM; `Cc1conc1CC(=O)N1CCC(c2nc(-c3ccc(F)cc3)no2)CC1` [Compound 11, 1-(4-(3-(4-fluorophenyl)-1,2,4-oxadiazol-5-yl)piperidin-1-yl)-2-(4-methylisoxazol-3-yl)ethan-1-one]: 1430 nM; `Cc1nc(CC(=O)N2CCC(c3nc(-c4ccc(F)cc4)no3)CC2)no1` [Compound 12, 1-(4-(3-(4-fluorophenyl)-1,2,4-oxadiazol-5-yl)piperidin-1-yl)-2-(5-methyl-1,2,4-oxadiazol-3-yl)ethan-1-one]: more than 10000 nM. For `Cc1nccnc1CC(=O)N1CCC(c2nc(C3CCCCC3)no2)CC1` [Compound 13, 1-(4-(3-cyclohexyl-1,2,4-oxadiazol-5-yl)piperidin-1-yl)-2-(3-methylpyrazin-2-yl)ethan-1-one], under setting [1], the EC50 is more than 25000 nM. In the case of `Cc1nccnc1CC(=O)N1CCC(c2nc(-c3ccc(Cl)c(Cl)c3)no2)CC1` [Compound 14, 1-(4-(3-(3,4-dichlorophenyl)-1,2,4-oxadiazol-5-yl)piperidin-1-yl)-2-(3-methylpyrazin-2-yl)ethan-1-one], the EC50 under setting [1] stood at 8320 nM.

For `Cc1nccnc1CC(=O)N1CCC(c2nc(-c3ccc(F)cc3)no2)CC1` [Compound 15, 1-(4-(3-(4-fluorophenyl)-1,2,4-oxadiazol-5-yl)piperidin-1-yl)-2-(3-methylpyrazin-2-yl)ethan-1-one], under setting [1], the EC50 was 1220 nM. Same read-out and setting: the figure for `Cc1nnn(CC(=O)N2CCC(c3nc(-c4ccc(Cl)c(F)c4)no3)CC2)n1` [Compound 16, 1-(4-(3-(4-chloro-3-fluorophenyl)-1,2,4-oxadiazol-5-yl)piperidin-1-yl)-2-(5-methyl-2H-tetrazol-2-yl)ethan-1-one] is 790 nM.

As to `Cc1nnnn1CC(=O)N1CCC(c2nc(-c3ccc(Cl)c(F)c3)no2)CC1` [Compound 17, 1-(4-(3-(4-chloro-3-fluorophenyl)-1,2,4-oxadiazol-5-yl)piperidin-1-yl)-2-(5-methyl-1H-tetrazol-1-yl)ethan-1-one], the EC50 under setting [1] turned out to be 160 nM. Still for that read-out and setting: the figure for `Cc1noc(CC(=O)N2CCC(c3nc(C4CC5CCC4C5)no3)CC2)n1` (stereo not shown) [Compound 18, 1-(4-(3-(bicyclo[2.2.1]heptan-2-yl)-1,2,4-oxadiazol-5-yl)piperidin-1-yl)-2-(3-methyl-1,2,4-oxadiazol-5-yl)ethan-1-one] is more than 10000 nM; for `Cc1noc(CC(=O)N2CCC(c3nc(C4CCC5(CC4)OCCO5)no3)CC2)n1` [Compound 19, 1-(4-(3-(1,4-dioxaspiro[4.5]decan-8-yl)-1,2,4-oxadiazol-5-yl)piperidin-1-yl)-2-(3-methyl-1,2,4-oxadiazol-5-yl)ethan-1-one] it is more than 10000 nM. Consider `Cc1noc(CC(=O)N2CCC(c3nc(C4CCCC4)no3)CC2)n1` [Compound 20, 1-(4-(3-cyclopentyl-1,2,4-oxadiazol-5-yl)piperidin-1-yl)-2-(3-methyl-1,2,4-oxadiazol-5-yl)ethan-1-one], for which the EC50 under setting [1] is more than 25000 nM. Regarding `Cc1noc(CC(=O)N2CCC(n3nnc(C4CCCC4)n3)CC2)n1` [Compound 21, 1-(4-(5-cyclopentyl-2H-tetrazol-2-yl)piperidin-1-yl)-2-(3-methyl-1,2,4-oxadiazol-5-yl)ethan-1-one], under setting [1], the EC50 stood at 7350 nM. Same read-out and setting: next, `Cc1noc(CC(=O)N2CCC(c3nc(C4CCCC5CC54)no3)CC2)n1` (stereo not shown) [Compound 22, 1-(4-(3-(bicyclo[4.1.0]heptan-2-yl)-1,2,4-oxadiazol-5-yl)piperidin-1-yl)-2-(3-methyl-1,2,4-oxadiazol-5-yl)ethan-1-one]: 890 nM; `Cc1noc(CC(=O)N2CCC(c3nc(C4CCCCC4)no3)CC2)n1` [Compound 23, 1-(4-(3-cyclohexyl-1,2,4-oxadiazol-5-yl)piperidin-1-yl)-2-(3-methyl-1,2,4-oxadiazol-5-yl)ethan-1-one]: more than 10000 nM.

On to `Cc1noc(CC(=O)N2CCC(n3nnc(C4CCCCC4)n3)CC2)n1` [Compound 24, 1-(4-(5-cyclohexyl-2H-tetrazol-2-yl)piperidin-1-yl)-2-(3-methyl-1,2,4-oxadiazol-5-yl)ethan-1-one], for which the EC50 under setting [1] is more than 25000 nM. Turning to `Cc1noc(CC(=O)N2CCC(O)(c3nc(C4CCCCC4)no3)CC2)n1` [Compound 25, 1-(4-(3-cyclohexyl-1,2,4-oxadiazol-5-yl)-4-hydroxypiperidin-1-yl)-2-(3-methyl-1,2,4-oxadiazol-5-yl)ethan-1-one], the half-maximal effective concentration (EC50) under setting [1] was more than 10000 nM.
